Data taken from PubChem BioAssay (NCI).
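How tested: cells in 96-well plates exposed to compound for 48 hours at five concentrations. At the GI50, growth is halved. TGI is the concentration that stops growth completely.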

How the values were obtained:
Test in all cases: NCI anticancer screen, dose series, 48 h
786-0 renal = system: 786-0 renal
A498 renal = system: A498 renal
A549 NSCLC = system: A549 NSCLC
ACHN renal = system: ACHN renal
BT-549 breast = system: BT-549 breast
CAKI-1 renal = system: CAKI-1 renal
CCRF-CEM leukemia = system: CCRF-CEM leukemia
COLO 205 colon = system: COLO 205 colon
DU-145 prostate = system: DU-145 prostate
EKVX NSCLC = system: EKVX NSCLC
HCC-2998 colon = system: HCC-2998 colon
HCT-116 colon = system: HCT-116 colon
HCT-15 colon = system: HCT-15 colon
HL-60(TB) leukemia = system: HL-60(TB) leukemia
HOP-62 NSCLC = system: HOP-62 NSCLC
HOP-92 NSCLC = system: HOP-92 NSCLC
HS 578T breast = system: HS 578T breast
HT29 colon = system: HT29 colon
IGROV1 ovarian = system: IGROV1 ovarian
K-562 leukemia = system: K-562 leukemia
KM12 colon = system: KM12 colon
LOX IMVI melanoma = system: LOX IMVI melanoma
M14 melanoma = system: M14 melanoma
MALME-3M melanoma = system: MALME-3M melanoma
MCF7 breast = system: MCF7 breast
MDA-MB-231 breast = system: MDA-MB-231 breast
MDA-MB-435 = system: MDA-MB-435
MOLT-4 leukemia = system: MOLT-4 leukemia
NCI-H226 lung = system: NCI-H226 lung
NCI-H23 lung = system: NCI-H23 lung
NCI-H522 lung = system: NCI-H522 lung
NCI/ADR-RES ovarian = system: NCI/ADR-RES ovarian
OVCAR-3 ovarian = system: OVCAR-3 ovarian
OVCAR-4 ovarian = system: OVCAR-4 ovarian
OVCAR-5 ovarian = system: OVCAR-5 ovarian
OVCAR-8 ovarian = system: OVCAR-8 ovarian
PC-3 prostate = system: PC-3 prostate
RPMI-8226 leukemia = system: RPMI-8226 leukemia
RXF 393 renal = system: RXF 393 renal
SF-268 CNS = system: SF-268 CNS
SF-295 CNS = system: SF-295 CNS
SF-539 CNS = system: SF-539 CNS
SK-MEL-2 melanoma = system: SK-MEL-2 melanoma
SK-MEL-28 melanoma = system: SK-MEL-28 melanoma
SK-MEL-5 melanoma = system: SK-MEL-5 melanoma
SK-OV-3 ovarian = system: SK-OV-3 ovarian
SN12C renal = system: SN12C renal
SNB-19 CNS = system: SNB-19 CNS
SNB-75 CNS = system: SNB-75 CNS
SR leukemia = system: SR leukemia
SW-620 colon = system: SW-620 colon
T-47D breast = system: T-47D breast
TK-10 renal = system: TK-10 renal
U251 CNS = system: U251 CNS
UACC-257 melanoma = system: UACC-257 melanoma
UACC-62 melanoma = system: UACC-62 melanoma
UO-31 renal = system: UO-31 renal
NCI-H460 lung = system: NCI-H460 lung

`c1ccc(-c2ccc(-c3ccc(C4=NCCN4)cc3)o2)cc1` gave a TGI (786-0 renal) of 3.1 µM, a TGI (A498 renal) of 3.65 µM and a TGI (A549 NSCLC) of 7.8 µM. For the same molecule, the TGI (ACHN renal) was 7.97 µM, the TGI (BT-549 breast) was 17.3 µM and the TGI (CAKI-1 renal) was 5.36 µM. It also gave a TGI (CCRF-CEM leukemia) of 4.46 µM, a TGI (COLO 205 colon) of 3.31 µM and a TGI (DU-145 prostate) of 10.3 µM. The TGI (EKVX NSCLC) was 10.8 µM, the TGI (HCC-2998 colon) was 2.81 µM and the TGI (HCT-116 colon) was 3.42 µM. The TGI (HCT-15 colon) was 4.19 µM, the TGI (HL-60(TB) leukemia) was 3.74 µM and the TGI (HOP-62 NSCLC) was 12.3 µM. It also gave a TGI (HOP-92 NSCLC) of 5.03 µM, a TGI (HS 578T breast) of 2.8 µM and a TGI (HT29 colon) of 4.94 µM. The TGI (IGROV1 ovarian) was 7.52 µM, the TGI (K-562 leukemia) was 3.44 µM and the TGI (KM12 colon) was 4.43 µM. The TGI (LOX IMVI melanoma) was 4.01 µM, the TGI (M14 melanoma) was 3.1 µM and the TGI (MALME-3M melanoma) was 2.17 µM. The TGI (MCF7 breast) was 3.68 µM, the TGI (MDA-MB-231 breast) was 3.89 µM and the TGI (MDA-MB-435) was 3.84 µM. It also gave a TGI (MOLT-4 leukemia) of 4.59 µM, a TGI (NCI-H226 lung) of 6.15 µM and a TGI (NCI-H23 lung) of 17.5 µM. The TGI (NCI-H522 lung) was 4.21 µM, the TGI (NCI/ADR-RES ovarian) was 19.7 µM and the TGI (OVCAR-3 ovarian) was 18 µM. For the same molecule, the TGI (OVCAR-4 ovarian) was 15 µM, the TGI (OVCAR-5 ovarian) was 7.9 µM and the TGI (OVCAR-8 ovarian) was 15.2 µM. It also gave a TGI (PC-3 prostate) of 5.54 µM, a TGI (RPMI-8226 leukemia) of 2.88 µM and a TGI (RXF 393 renal) of 6.53 µM. It also gave a TGI (SF-268 CNS) of 8.4 µM, a TGI (SF-295 CNS) of 3.82 µM and a TGI (SF-539 CNS) of 4.4 µM. The TGI (SK-MEL-2 melanoma) was 3.51 µM, the TGI (SK-MEL-28 melanoma) was 3.75 µM and the TGI (SK-MEL-5 melanoma) was 3.92 µM. For the same molecule, the TGI (SK-OV-3 ovarian) was 11.5 µM, the TGI (SN12C renal) was 11.4 µM and the TGI (SNB-19 CNS) was 6.3 µM. The TGI (SNB-75 CNS) was 5.17 µM, the TGI (SR leukemia) was 7.43 µM and the TGI (SW-620 colon) was 4.42 µM. For the same molecule, the TGI (T-47D breast) was 7.06 µM, the TGI (TK-10 renal) was 11.4 µM and the TGI (U251 CNS) was 3.93 µM. It also gave a TGI (UACC-257 melanoma) of 4.89 µM, a TGI (UACC-62 melanoma) of 3.2 µM and a TGI (UO-31 renal) of 3.14 µM.
For `O=C(c1ccccc1)N(C(=S)NCCc1ccc(Cl)cc1)c1ccc(Cl)cc1`, the GI50 (786-0 renal) was 14.7 µM, the TGI (786-0 renal) was 28.6 µM and the GI50 (A498 renal) was 16.3 µM. The TGI (A498 renal) was 30.7 µM, the GI50 (A549 NSCLC) was 19.4 µM and the TGI (A549 NSCLC) was 49.9 µM. It also gave a GI50 (ACHN renal) of 5.68 µM, a TGI (ACHN renal) of 17.4 µM and a GI50 (BT-549 breast) of 11.8 µM. The TGI (BT-549 breast) was 25.8 µM, the GI50 (CAKI-1 renal) was 5.48 µM and the TGI (CAKI-1 renal) was 20.9 µM. For the same molecule, the GI50 (CCRF-CEM leukemia) was 2.59 µM, the TGI (CCRF-CEM leukemia) was 10.7 µM and the GI50 (COLO 205 colon) was 6.83 µM. The TGI (COLO 205 colon) was 23.1 µM, the GI50 (DU-145 prostate) was 5.22 µM and the TGI (DU-145 prostate) was 16.7 µM. The GI50 (EKVX NSCLC) was 17.4 µM, the TGI (EKVX NSCLC) was 38.8 µM and the GI50 (HCC-2998 colon) was 8.54 µM. The TGI (HCC-2998 colon) was 22.6 µM, the GI50 (HCT-116 colon) was 7.11 µM and the TGI (HCT-116 colon) was 23.7 µM. For the same molecule, the GI50 (HCT-15 colon) was 3.57 µM, the TGI (HCT-15 colon) was 14.4 µM and the GI50 (HL-60(TB) leukemia) was 6.77 µM. For the same molecule, the TGI (HL-60(TB) leukemia) was over 100 µM, the GI50 (HOP-62 NSCLC) was 20.2 µM and the TGI (HOP-62 NSCLC) was 37.9 µM. It also gave a GI50 (HOP-92 NSCLC) of 7.3 µM, a TGI (HOP-92 NSCLC) of 21 µM and a GI50 (HS 578T breast) of 13.8 µM. The TGI (HS 578T breast) was over 100 µM, the GI50 (HT29 colon) was 5.3 µM and the TGI (HT29 colon) was 58.4 µM. It also gave a GI50 (IGROV1 ovarian) of 3.88 µM, a TGI (IGROV1 ovarian) of 16.2 µM and a GI50 (K-562 leukemia) of 74.6 µM. The TGI (K-562 leukemia) was over 100 µM, the GI50 (KM12 colon) was 4.24 µM and the TGI (KM12 colon) was 15.3 µM. It also gave a GI50 (LOX IMVI melanoma) of 2.4 µM, a TGI (LOX IMVI melanoma) of 5.3 µM and a GI50 (M14 melanoma) of 8.42 µM. For the same molecule, the TGI (M14 melanoma) was 25 µM, the GI50 (MALME-3M melanoma) was 11.8 µM and the TGI (MALME-3M melanoma) was 28.6 µM. It also gave a GI50 (MCF7 breast) of 3.58 µM, a TGI (MCF7 breast) of 19.4 µM and a GI50 (MDA-MB-231 breast) of 6.95 µM. For the same molecule, the TGI (MDA-MB-231 breast) was 20.4 µM, the GI50 (MDA-MB-435) was 4.67 µM and the TGI (MDA-MB-435) was 20.4 µM. It also gave a GI50 (MOLT-4 leukemia) of 3.14 µM, a TGI (MOLT-4 leukemia) of over 100 µM and a GI50 (NCI-H226 lung) of 16.7 µM. The TGI (NCI-H226 lung) was 39.4 µM, the GI50 (NCI-H23 lung) was 13 µM and the TGI (NCI-H23 lung) was 31.4 µM. It also gave a GI50 (NCI-H460 lung) of 19.4 µM, a TGI (NCI-H460 lung) of 42.4 µM and a GI50 (NCI-H522 lung) of 8.3 µM. The TGI (NCI-H522 lung) was 22.9 µM, the GI50 (NCI/ADR-RES ovarian) was 16.2 µM and the TGI (NCI/ADR-RES ovarian) was 30.9 µM. For the same molecule, the GI50 (OVCAR-3 ovarian) was 3.75 µM, the TGI (OVCAR-3 ovarian) was 13.3 µM and the GI50 (OVCAR-4 ovarian) was 13.7 µM. The TGI (OVCAR-4 ovarian) was 29.3 µM, the GI50 (OVCAR-5 ovarian) was 19.6 µM and the TGI (OVCAR-5 ovarian) was 36.4 µM. It also gave a GI50 (OVCAR-8 ovarian) of 19.1 µM, a TGI (OVCAR-8 ovarian) of 35.3 µM and a GI50 (PC-3 prostate) of 6.94 µM. It also gave a TGI (PC-3 prostate) of 26.2 µM, a GI50 (RPMI-8226 leukemia) of 2.08 µM and a TGI (RPMI-8226 leukemia) of 5.66 µM. It also gave a GI50 (RXF 393 renal) of 12.8 µM, a TGI (RXF 393 renal) of 28.6 µM and a GI50 (SF-268 CNS) of 5.67 µM. For the same molecule, the TGI (SF-268 CNS) was 18.4 µM, the GI50 (SF-295 CNS) was 14.6 µM and the TGI (SF-295 CNS) was 31.9 µM. It also gave a GI50 (SF-539 CNS) of 5.93 µM, a TGI (SF-539 CNS) of 19.1 µM and a GI50 (SK-MEL-2 melanoma) of 20.2 µM. For the same molecule, the TGI (SK-MEL-2 melanoma) was 36.4 µM, the GI50 (SK-MEL-28 melanoma) was 12.7 µM and the TGI (SK-MEL-28 melanoma) was 27 µM. The GI50 (SK-OV-3 ovarian) was 18.3 µM, the TGI (SK-OV-3 ovarian) was 32.8 µM and the GI50 (SN12C renal) was 7.45 µM. It also gave a TGI (SN12C renal) of 20.7 µM, a GI50 (SNB-19 CNS) of 15.9 µM and a TGI (SNB-19 CNS) of 30.1 µM. It also gave a GI50 (SNB-75 CNS) of 13.5 µM, a TGI (SNB-75 CNS) of 27.9 µM and a GI50 (SR leukemia) of 5.54 µM. The TGI (SR leukemia) was over 100 µM, the GI50 (SW-620 colon) was 4.49 µM and the TGI (SW-620 colon) was 16.7 µM. The GI50 (T-47D breast) was 6.24 µM, the TGI (T-47D breast) was 25.3 µM and the GI50 (TK-10 renal) was 5.67 µM. The TGI (TK-10 renal) was 19.7 µM, the GI50 (U251 CNS) was 4.38 µM and the TGI (U251 CNS) was 14.9 µM. It also gave a GI50 (UACC-257 melanoma) of 18.2 µM, a TGI (UACC-257 melanoma) of 34.6 µM and a GI50 (UACC-62 melanoma) of 11.4 µM. It also gave a TGI (UACC-62 melanoma) of 23.8 µM, a GI50 (UO-31 renal) of 2.61 µM and a TGI (UO-31 renal) of 8.85 µM.
